Results as given in paper PMC11909324 (Journal of the Science of Food and Agriculture, 2024).
Values joined by “and” are separate entries in the source; they are usually repeats but may differ in a detail not shown here. Identical values can stand only once. Like-named read-outs stand apart in the source and are kept apart here.

Experiments:
xanthine oxidase (XO) [1] = biological target: T1, xanthine oxidase (XO) (Bos taurus, UniProt P80457); assay: XO assay with 6MP as substrate (6-thiouric acid formation, HPLC-UV); type: biochemical, bovine; conditions: for lower decrease in metabolite formation in the 6MP assay than in the xanthine assay: difference between assays; for IC50: XO 0.01 U mL^−1, 25 min, 37 °C, pH 7.5, read-out: IC50, 6MP oxidation; for fold stronger inhibition than APU, 6MP assay: based on IC50 values; for XO-catalyzed 6-thiouric acid formation: inhibitor 5 μmol L^−1; for α = IC50 of flavonoid/IC50 of positive control, 6MP oxidation: relative to APU; for IC50(6MP)/IC50(xanthine): ratio of IC50 values with the two substrates;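 as to all read-outs here: incubation in 0.05 mol L^−1 sodium phosphate buffer, with 6MP and 6-thiouric acid quantified by HPLC-UV and conversion taken as the product share of substrate plus product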
T1 construct: XO (from bovine milk); purchased Merck (Darmstadt, Germany); host or cells: bovine milk (natural source)
T1 sequence (P80457 whole entry): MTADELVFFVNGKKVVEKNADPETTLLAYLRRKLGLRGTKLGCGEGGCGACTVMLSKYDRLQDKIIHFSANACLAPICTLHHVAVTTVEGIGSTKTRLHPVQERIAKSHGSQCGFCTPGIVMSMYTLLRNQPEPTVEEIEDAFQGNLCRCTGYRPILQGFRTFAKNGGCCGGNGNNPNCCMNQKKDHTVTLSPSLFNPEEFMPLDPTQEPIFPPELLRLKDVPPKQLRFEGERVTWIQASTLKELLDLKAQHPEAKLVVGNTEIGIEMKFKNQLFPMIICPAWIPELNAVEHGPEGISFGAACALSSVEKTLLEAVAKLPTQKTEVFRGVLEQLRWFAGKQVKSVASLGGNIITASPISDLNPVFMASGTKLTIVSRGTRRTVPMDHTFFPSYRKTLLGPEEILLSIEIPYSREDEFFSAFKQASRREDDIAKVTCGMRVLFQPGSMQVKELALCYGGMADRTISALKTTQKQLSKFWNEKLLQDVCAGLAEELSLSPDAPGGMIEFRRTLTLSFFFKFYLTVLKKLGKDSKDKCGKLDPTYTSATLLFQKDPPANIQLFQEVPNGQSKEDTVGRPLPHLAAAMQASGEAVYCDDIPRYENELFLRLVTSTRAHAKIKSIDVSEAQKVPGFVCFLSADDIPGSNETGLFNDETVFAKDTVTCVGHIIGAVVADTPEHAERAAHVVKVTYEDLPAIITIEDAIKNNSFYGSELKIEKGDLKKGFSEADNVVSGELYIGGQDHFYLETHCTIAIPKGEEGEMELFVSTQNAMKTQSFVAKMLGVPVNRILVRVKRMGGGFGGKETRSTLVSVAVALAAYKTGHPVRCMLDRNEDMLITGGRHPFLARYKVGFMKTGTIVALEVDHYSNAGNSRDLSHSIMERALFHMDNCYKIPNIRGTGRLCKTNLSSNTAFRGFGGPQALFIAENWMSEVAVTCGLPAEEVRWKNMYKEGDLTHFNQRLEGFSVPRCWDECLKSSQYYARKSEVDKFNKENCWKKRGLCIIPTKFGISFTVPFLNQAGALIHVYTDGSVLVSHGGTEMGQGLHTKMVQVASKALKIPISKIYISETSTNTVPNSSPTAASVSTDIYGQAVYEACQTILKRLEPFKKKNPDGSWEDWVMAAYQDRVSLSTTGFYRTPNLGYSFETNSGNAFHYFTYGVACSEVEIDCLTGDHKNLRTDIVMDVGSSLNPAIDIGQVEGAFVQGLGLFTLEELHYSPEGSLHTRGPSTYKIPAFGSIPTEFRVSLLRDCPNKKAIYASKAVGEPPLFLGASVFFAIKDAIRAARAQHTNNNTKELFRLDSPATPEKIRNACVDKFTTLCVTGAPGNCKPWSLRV

xanthine oxidase (XO) [2] = biological target: T1, xanthine oxidase (XO); assay: XO assay with xanthine as substrate (uric acid formation, HPLC-UV); type: biochemical, bovine; conditions: for decrease in uric acid production (inhibition of XO-catalyzed xanthine oxidation) / inhibition at 20 µM: inhibitor 20 μmol L^−1; for decrease in uric acid production (inhibition of XO-catalyzed xanthine oxidation) / inhibition at 20 µM / IC50 / XO-catalyzed uric acid formation: xanthine 5 μmol L^−1; for inhibition at 20 µM: read-out: decrease in uric acid production (inhibition of XO-catalyzed xanthine oxidation); for IC50: XO 0.0003 U mL^−1, 8 min, 37 °C, pH 7.5, read-out: IC50, xanthine oxidation; for XO-catalyzed uric acid formation: inhibitor 5 μmol L^−1; for α = IC50 of flavonoid/IC50 of positive control, xanthine oxidation: relative to APU;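 as to all read-outs here: incubations in 0.05 mol L^−1 sodium phosphate buffer, with uric acid and remaining xanthine both quantified by HPLC-UV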
xanthine oxidase (XO) [3] = biological target: T1, xanthine oxidase (XO); assay: Fluorescence quenching studies of polyphenol-XO complexes; type: binding, bovine; conditions: for Log K SV ± SEM (Stern–Volmer quenching constant): K SV in L mol^−1
Experimental: Increasing concentrations of polyphenols (0, 2, 4, 6, 8 and 10 μmol L^−1) were added to a standard amount of XO (0.4 μmol L^−1) in sodium phosphate buffer (0.05 mol L^−1, pH 7.5). Then, the emission spectra of XO were recorded using 280 nm excitation wavelength. The inner‐filter effects of silymarin components/metabolites were corrected based on the following equation[39], [41], [42]: (1) Icor=Iobs×e^Aex+Aem/2 where I cor is the corrected and I obs is the observed emission intensity; while A ex and A em are the absorbance of polyphenols at the excitation and emission wavelengths applied, respectively. Polyphenol‐induced fluorescence quenching was evaluated at 335 nm. Stern–Volmer quenching constants (K SV; unit: L mol^−1) of polyphenol–XO complexes were determined using the graphical application of the Stern–Volmer equation[43], [44], [45]: (2) I0/I=1+KSV×Q where I 0 and I are the emission signals of XO without and with the polyphenols tested, respectively, and [Q] denotes the molar concentration (mol L^−1) of the quencher (polyphenols). The binding constants (K; unit: L mol^−1) of polyphenol–XO complexes were calculated applying the modified Stern–Volmer equation[43], [44], [45]: (3) I0/I0−I=1/fa×K×1/Q+1/fa where I 0, I and [Q] have the same meaning as in Eqn (2), and f a is the fraction of the accessible fluorophore.

xanthine oxidase (XO) [4] = biological target: T1, xanthine oxidase (XO); assay: Reversibility of XO inhibition (preincubation, increasing xanthine concentrations); type: biochemical, bovine; conditions: SBS 5 μmol L^−1, DSC and DSCS 0.5 μmol L^−1; 10 min preincubation; xanthine 5, 25, 50 μmol L^−1
Experimental: After 8 min incubation (700 rpm, 37 °C), the reaction was stopped, and the samples were treated in the same way as described in the previous paragraph.

[5] = inhibitor 20 μmol L^−1, 6MP 5 μmol L^−1
[6] = λex 280 nm, λem 335 nm, XO 0.4 μmol L^−1, pH 7.5
[7] = association constant K in L mol^−1, λex 280 nm, λem 335 nm, XO 0.4 μmol L^−1, pH 7.5
[8] = association constant K in L mol^−1, λex 280 nm, λem 335 nm, XO 0.4 μmol L^−1, pH 7.5, read-out: Log K ± SEM (binding constant, modified Stern–Volmer) (converted)

decrease in 6-thiouric acid formation (inhibition of XO-catalyzed 6MP oxidation) (xanthine oxidase (XO) [1]; [5]) | decrease in uric acid production (inhibition of XO-catalyzed xanthine oxidation) (xanthine oxidase (XO) [2]) | Log K SV ± SEM (Stern–Volmer quenching constant) (xanthine oxidase (XO) [3]; [6]) | Log K ± SEM (binding constant, modified Stern–Volmer) (xanthine oxidase (XO) [3]; [7]) | IC50 (xanthine oxidase (XO) [1]; 6MP 5 μmol L^−1) [µM] | α = IC50 of flavonoid/IC50 of positive control, 6MP oxidation (xanthine oxidase (XO) [1]) | IC50 (xanthine oxidase (XO) [2]) | α = IC50 of flavonoid/IC50 of positive control, xanthine oxidation (xanthine oxidase (XO) [2]) | IC50(6MP)/IC50(xanthine) (xanthine oxidase (XO) [1]) | Molecule | other results
 |  | 4.43 ± 0.01 | 4.81 ± 0.01 | 10 | 2.38 | 4.5 µM | 17.3 | 2.2 | COc1cc([C@@H]2Oc3c(O)cc([C@H]4Oc5cc(O)cc(O)c5C(=O)[C@@H]4O)cc3[C@H]2CO)ccc1O [SC, silychristin] | 
 | more than 80% | 4.58 ± 0.03 | 4.99 ± 0.05 | 2.91 | 0.69 | 1.4 µM and 1.43 µM | 5.50 | 2.0 | COc1cc([C@H]2Oc3cc([C@H]4Oc5cc(O)cc(O)c5C(=O)[C@@H]4O)ccc3O[C@@H]2CO)ccc1OS(=O)(=O)O [SAS, silybin A‐20‐O‐sulfate] | 
weak to moderate inhibitors | only weak inhibitors | 4.49 ± 0.01 |  |  |  |  |  |  | COc1cc([C@@H]2Oc3cc([C@H]4Oc5cc(O)cc(O)c5C(=O)[C@@H]4O)ccc3O[C@H]2CO)ccc1O [SB, (2R,3R)‐3,5,7‐trihydroxy‐2‐[(2S,3S)‐3‐(4‐hydroxy‐3‐methoxyphenyl)‐2‐(hydroxymethyl)‐2,3‐dihydro‐1,4‐benzodioxin‐6‐yl]‐2,3‐dihydrochromen‐4‐one] | Kd (xanthine oxidase (XO) [3]; [8]): 13.5 µM
 | more than 80% | 4.63 ± 0.01 | 5.05 ± 0.02 | 0.57 | 0.14 | 0.24 µM | 0.92 | 2.4 | COc1cc([C@@H]2Oc3cc([C@H]4Oc5cc(O)cc(O)c5C(=O)[C@@H]4O)ccc3O[C@H]2CO)ccc1OS(=O)(=O)O [SBS, silybin B‐20‐O‐sulfate] | K (binding constant) of polyphenol–XO complex (xanthine oxidase (XO) [3]; fluorescence quenching): above 10^5 L mol^−1; fold stronger inhibition than APU, 6MP assay (xanthine oxidase (XO) [1]): ~7 fold; XO-catalyzed 6-thiouric acid formation (xanthine oxidase (XO) [1]; 6MP 5 μmol L^−1): almost completely abolished; XO-catalyzed uric acid formation (xanthine oxidase (XO) [2]): almost completely abolished; reversibility of the inhibitory action on XO (xanthine oxidase (XO) [4]): reversible

More lines, now with the values behind:

Molecule | decrease in 6-thiouric acid formation (inhibition of XO-catalyzed 6MP oxidation) (xanthine oxidase (XO) [1]; [5]) | decrease in uric acid production (inhibition of XO-catalyzed xanthine oxidation) (xanthine oxidase (XO) [2]) | Log K SV ± SEM (Stern–Volmer quenching constant) (xanthine oxidase (XO) [3]; [6]) | Log K ± SEM (binding constant, modified Stern–Volmer) (xanthine oxidase (XO) [3]; [7]) | IC50 (xanthine oxidase (XO) [1]; 6MP 5 μmol L^−1) [µM] | α = IC50 of flavonoid/IC50 of positive control, 6MP oxidation (xanthine oxidase (XO) [1]) | IC50 (xanthine oxidase (XO) [2]) | α = IC50 of flavonoid/IC50 of positive control, xanthine oxidation (xanthine oxidase (XO) [2]) | IC50(6MP)/IC50(xanthine) (xanthine oxidase (XO) [1]) | other results
O=C(O[C@@H]1Cc2c(O)cc(O)cc2O[C@@H]1c1cc(O)c(O)c(O)c1)c1cc(O)c(O)c(O)c1 [EGCG, epigallocatechin gallate] | weak to moderate inhibitors | approximately 50% |  |  |  |  |  |  |  | 
COc1cc(C2Oc3c(O)cc(C4Oc5cc(O)cc(O)c5C(=O)C4O)cc3C2CO)ccc1OS(=O)(=O)O (mixture of isomers) [SCS, silychristin‐19‐O‐sulfate] | weak to moderate inhibitors | weaker effect compared to its parent compound | 4.37 ± 0.03 | 4.66 ± 0.02 |  |  |  |  |  | lower decrease in metabolite formation in the 6MP assay than in the xanthine assay (xanthine oxidase (XO) [1]; inhibitor 20 μmol L^−1): ~20%
Oc1cc(O)c2c(c1)OC(c1ccc(O)c(O)c1)C(O)C2 (stereo not shown) [CAT, catechin] |  | did not cause significant changes |  |  |  |  |  |  |  | 
O=C(O[C@@H]1Cc2c(O)cc(O)cc2O[C@@H]1c1ccc(O)c(O)c1)c1cc(O)c(O)c(O)c1 [ECG, epicatechin gallate] | weak to moderate inhibitors |  |  |  |  |  |  |  |  | inhibition at 20 µM (xanthine oxidase (XO) [2]): ~50%
COc1cc(C2Oc3c(O)cc(-c4oc5cc(O)cc(O)c5c(=O)c4O)cc3C2CO)ccc1OS(=O)(=O)O (mixture of isomers) [DSCS, 2,3‐dehydrosilychristin‐19‐O‐sulfate] |  |  | 4.68 ± 0.01 | 5.12 ± 0.03 | 0.21 | 0.05 | 0.08 µM | 0.31 |  | K (binding constant) of polyphenol–XO complex (xanthine oxidase (XO) [3]; fluorescence quenching): above 10^5 L mol^−1; fold stronger inhibition than APU, 6MP assay (xanthine oxidase (XO) [1]): approximately 20 fold; XO-catalyzed 6-thiouric acid formation (xanthine oxidase (XO) [1]; 6MP 5 μmol L^−1): almost completely abolished; XO-catalyzed uric acid formation (xanthine oxidase (XO) [2]): almost completely abolished; reversibility of the inhibitory action on XO (xanthine oxidase (XO) [4]): reversible
Oc1cc(O)c2c(c1)O[C@H](c1cc(O)c(O)c(O)c1)[C@H](O)C2 [EGC, epigallocatechin] | only slight inhibitory action | did not cause significant changes |  |  |  |  |  |  |  | 
Oc1cc(O)c2c(c1)O[C@H](c1ccc(O)c(O)c1)[C@H](O)C2 [ECT, epicatechin] |  | did not cause significant changes |  |  |  |  |  |  |  | 
COc1cc([C@H]2Oc3cc([C@H]4Oc5cc(O)cc(O)c5C(=O)[C@@H]4O)ccc3O[C@@H]2CO)ccc1O [SA, silybin A] | weak to moderate inhibitors | only weak inhibitors | 4.45 ± 0.04 |  |  |  |  |  |  | Kd (xanthine oxidase (XO) [3]; [8]): 19.5 µM
COc1cc([C@@H]2Oc3c(O)cc(-c4oc5cc(O)cc(O)c5c(=O)c4O)cc3[C@H]2CO)ccc1O [DSC, 3,5,7‐trihydroxy‐2‐[(2R,3S)‐7‐hydroxy‐2‐(4‐hydroxy‐3‐methoxyphenyl)‐3‐(hydroxymethyl)‐2,3‐dihydro‐1‐benzofuran‐5‐yl]chromen‐4‐one] | marked decreases |  | 4.68 ± 0.01 |  | 0.29 | 0.07 | 0.09 µM | 0.35 | 3.2 | Kd (xanthine oxidase (XO) [3]; [8]): 7.76 µM; Kd (xanthine oxidase (XO) [3]; fluorescence quenching, read-out: K (binding constant) of polyphenol–XO complex): < 10 µM; fold stronger inhibition than APU, 6MP assay (xanthine oxidase (XO) [1]): ~15 fold; XO-catalyzed 6-thiouric acid formation (xanthine oxidase (XO) [1]; 6MP 5 μmol L^−1): almost completely abolished; inhibition at 20 µM (xanthine oxidase (XO) [1]; inhibitor 20 μmol L^−1, 6MP 5 μmol L^−1, read-out: decrease in 6-thiouric acid formation (inhibition of XO-catalyzed 6MP oxidation)): > 80%; fold stronger inhibitor of xanthine oxidation compared to SC (xanthine oxidase (XO) [2]; based on IC50 values): 50 fold; XO-catalyzed uric acid formation (xanthine oxidase (XO) [2]): almost completely abolished; inhibition at 20 µM (xanthine oxidase (XO) [2]): 96%; reversibility of the inhibitory action on XO (xanthine oxidase (XO) [4]): reversible
isosilybin A‐20‐O‐sulfate [ISAS] |  | more than 80% | 4.49 ± 0.01 | 4.90 ± 0.04 | 2.86 | 0.68 | 0.68 µM | 2.62 | 4.2 | 
Oc1ncnc2[nH]ncc12 [APU, allopurinol, reference compound] | marked decreases | almost completely abolished metabolite formation |  |  |  |  |  |  |  | 
COc1cc([C@H]2Oc3ccc([C@H]4Oc5cc(O)cc(O)c5C(=O)[C@@H]4O)cc3O[C@@H]2CO)ccc1O [ISA, isosilybin A] | weak to moderate inhibitors |  | 4.46 ± 0.01 |  |  |  |  |  |  | Kd (xanthine oxidase (XO) [3]; [8]): 18.2 µM; lower decrease in metabolite formation in the 6MP assay than in the xanthine assay (xanthine oxidase (XO) [1]; inhibitor 20 μmol L^−1): ~20%; inhibition at 20 µM (xanthine oxidase (XO) [2]): 64%
